In patent US10375962B2, “Heterocycle derivatives as pesticides” (BAYER CROPSCIENCE AKTIENGESELLSCHAFT, priority 2016, dated 2019):
Where two headings read alike, the source gives them in different places.

How the values were obtained:
[1] = log P by HPLC on a reversed-phase column (C 18), EEC Directive 79/831 Annex V.A8; format: physicochemical; conditions: for chromatographic logP: reversed-phase HPLC column (C 18)
Description: Called log P (HCOOH) in the table.
Called log P (neutral) in the table.

[2] = test system: larvae of the mustard beetle (Phaedon cochleariae); test: Phaedon cochleariae - spray test; format: in vivo; conditions: after 7 days
Procedure: Solvent: 78.0 parts by weight of acetone • • 1.5 parts by weight of dimethylformamide
Emulsifier: alkylaryl polyglycol ether
(§1) To produce a suitable active compound formulation, 1 part by weight of active compound is dissolved with the stated parts by weight of solvent and made up with water containing an emulsifier concentration of 1000 ppm until the desired concentration is attained. To produce further test concentrations, the formulation is diluted with emulsifier-containing water.
Discs of Chinese cabbage leaves (Brassica pekinensis) are sprayed with an active compound formulation of the desired concentration and, after drying, populated with larvae of the mustard beetle (Phaedon cochleariae).
After 7 days, the efficacy in % is determined. 100% means that all the beetle larvae have been killed and 0% means that none of the beetle larvae have been killed.

[3] = test system: L1 larvae of the Australian sheep blowfly (Lucilia cuprina); test: Lucilia cuprina test; format: in vivo; conditions: application rate 100 ppm; after 2 days
Procedure: (§2) Solvent: dimethyl sulphoxide
To produce a suitable active compound formulation, 10 mg of active compound are mixed with 0.5 ml of dimethyl sulphoxide, and the concentrate is diluted with water to the desired concentration.
About 20 L1 larvae of the Australian sheep blowfly (Lucilia cuprina) are transferred into a test vessel containing minced horsemeat and the active compound formulation of the desired concentration.
After 2 days, the kill in % is determined. 100% means that all the larvae have been killed; 0% means that no larvae have been killed.

[4] = test system: caterpillars of the armyworm (Spodoptera frugiperda); test: Spodoptera frugiperda - spray test; format: in vivo; conditions: maize leaf discs, after 7 days
Procedure: Solvent: 78.0 parts by weight of acetone • • 1.5 parts by weight of dimethylformamide Emulsifier: alkylaryl polyglycol ether […] To produce further test concentrations, the formulation is diluted with emulsifier-containing water. Leaf discs of maize (Zea mays) are sprayed with an active compound preparation of the desired concentration and, after drying, populated with caterpillars of the armyworm (Spodoptera frugiperda).

[5] = test system: unfed adult cat fleas (Ctenocephalides felis); test: Ctenocephalides felis - oral test; format: in vivo; conditions: application rate 100 ppm in citrated cattle blood; after 2 days
Procedure: as §2
For the purpose of production of a suitable active compound formulation, 10 mg of active compound are mixed with 0.5 ml of dimethyl sulphoxide. Dilution with citrated cattle blood gives the desired concentration.
About 20 unfed adult cat fleas (Ctenocephalides felis) are placed into a chamber which is closed at the top and bottom with gauze. A metal cylinder whose bottom end is closed with parafilm is placed onto the chamber. The cylinder contains the blood/active compound formulation, which can be imbibed by the fleas through the parafilm membrane.
After 2 days, the kill in % is determined. 100% means that all of the fleas have been killed; 0% means that none of the fleas have been killed.

[6] = test system: green peach aphid (Myzus persicae); test: Myzus persicae - spray test (Chinese cabbage leaf discs); format: in vivo; conditions: after 5 days
Procedure: Solvent: 78 parts by weight of acetone • • 1.5 parts by weight of dimethylformamide Emulsifier: alkylaryl polyglycol ether
as §1
Discs of Chinese cabbage leaves (Brassica pekinensis) infested by all stages of the green peach aphid (Myzus persicae) are sprayed with an active compound formulation of the desired concentration.
After 5 days, the efficacy in % is determined. 100% means that all the aphids have been killed and 0% means that none of the aphids have been killed.

[7] = acidic range, pH 2.7, 0.1% aqueous formic acid/acetonitrile, 55° C.
[8] = neutral range, pH 7.8, 0.001 molar aqueous ammonium hydrogencarbonate/acetonitrile, 55° C.

SMILES | LOGP_HCOOH (log P (HCOOH)) ([1]; pH 2.7) | LOGP_NEUTRAL (log P (neutral)) ([1]; pH 7.8) | efficacy ([2]; application rate 100 g/ha) [%] | further results
CCS(=O)(=O)c1ccc(N2Cc3cccnc3C2=O)nc1-c1nc2cc(C(F)(F)F)ncc2n1C [Example I-46] | 2.26 | 2.30 | – | –
CCS(=O)(=O)c1ccc(-n2c(=O)n(C)c3ccccc32)nc1-c1nc2cc(C(F)(F)F)ncc2n1C [Example I-44] | 3.10 | 3.06 | – | –
CCS(=O)(=O)c1ccc(N2C(=O)c3ccccc3C2=O)nc1-c1nc2cc(C(F)(F)F)ncc2n1C [Example I-40] | 2.92 | 2.96 | 100 | efficacy ([2]; application rate 500 g/ha): 100%
CCS(=O)(=O)c1ccc(-n2ncc3cc(Cl)ccc32)nc1-c1nc2cc(C(F)(F)F)ncc2n1C [Example I-9] | 4.03 | 4.03 | – | –
CCS(=O)(=O)c1ccc(-n2ccc3cccnc32)nc1-c1nc2cc(C(F)(F)F)ncc2n1C [Example I-29] | 3.76 | 3.74 | – | efficacy (kill) [3]: 100%; efficacy ([4]; application rate 100 g/ha): 100%; efficacy ([4]; application rate 500 g/ha): 100%
CCS(=O)(=O)c1ccc(N2Cc3cc(OC)ccc3C2=O)nc1-c1nc2cc(C(F)(F)F)ncc2n1C [Example I-38] | 3.29 | 3.32 | – | efficacy ([4]; application rate 100 g/ha): 100%
CCS(=O)(=O)c1ccc(-n2ccc3cc(Cl)ccc32)nc1-c1nc2cc(C(F)(F)F)ncc2n1C [Example I-25] | – | – | – | LOGP_HCOOH (log P (HCOOH)) [1, 7]: 4.10; LOGP_NEUTRAL (log P (neutral)) [1, 8]: 4.09
CCS(=O)(=O)c1ccc(-n2nc3ccc(Cl)nn3c2=O)nc1-c1nc2cc(C(F)(F)F)ncc2n1C [Example I-42] | 2.42 | 2.38 | 100 | –
CCS(=O)(=O)c1ccc(-n2ccc3ccccc32)nc1-c1nc2cc(C(F)(F)F)ncc2n1C [Example I-26] | – | – | – | LOGP_HCOOH (log P (HCOOH)) [1, 7]: 3.72; LOGP_NEUTRAL (log P (neutral)) [1, 8]: 3.65
CCS(=O)(=O)c1ccc(-n2ncc3ccncc32)nc1-c1nc2cc(C(F)(F)F)ncc2n1C [Example I-7] | – | – | 100 | efficacy ([2]; application rate 500 g/ha): 100%
CCS(=O)(=O)c1ccc(-c2cn(C)c3ccccc23)nc1-c1nc2cc(C(F)(F)F)ncc2n1C [Example I-1, 2-[3-(Ethylsulphonyl)-6-(1-methyl-1H-indol-3-yl)pyridin-2-yl]-3-methyl-6-(trifluoromethyl)-3H-imidazo[4,5-c]pyridine] | – | – | – | chromatographic logP ([1]; acidic range, pH 2.7, 0.1% aqueous formic acid/acetonitrile, 55° C., read-out: LOGP_HCOOH (log P (HCOOH))): 3.55; chromatographic logP ([1]; neutral range, pH 7.8, 0.001 molar aqueous ammonium hydrogencarbonate/acetonitrile, 55° C., read-out: LOGP_NEUTRAL (log P (neutral))): 3.45
CCS(=O)(=O)c1ccc(-c2cc3cc(C#N)ccc3[nH]2)nc1-c1nc2cc(C(F)(F)F)ncc2n1C [Example I-3] | 3.18 | 3.08 | 100 | efficacy (kill) [5]: 95%; efficacy (kill) [3]: 100%; efficacy ([2]; application rate 500 g/ha): 100%; efficacy ([4]; application rate 100 g/ha): 100%; efficacy ([4]; application rate 500 g/ha): 83%
CCS(=O)(=O)c1ccc(-n2c(=O)oc3ccccc32)nc1-c1nc2cc(C(F)(F)F)ncc2n1C [Example I-41] | – | – | – | LOGP_HCOOH (log P (HCOOH)) [1, 7]: 3.25; LOGP_NEUTRAL (log P (neutral)) [1, 8]: 3.26
CCS(=O)(=O)c1ccc(-n2ccc3nccc(Cl)c32)nc1-c1nc2cc(C(F)(F)F)ncc2n1C [Example I-19] | 2.51 | 2.69 | 100 | efficacy ([6]; application rate 100 g/ha): 90%; efficacy ([6]; application rate 500 g/ha): 70%; efficacy ([2]; application rate 500 g/ha): 100%
CCS(=O)(=O)c1ccc(-n2nnc3ccc(Cl)nc32)nc1-c1nc2cc(C(F)(F)F)ncc2n1C [Example I-37] | 2.96 | 3.00 | – | efficacy ([6]; application rate 100 g/ha): 90%
CCS(=O)(=O)c1ccc(-n2cccc3oc(=O)nc2-3)nc1-c1nc2cc(C(F)(F)F)ncc2n1C [Example I-51] | 2.09 | 2.08 | – | –
